Results taken from paper PMC11904721 (ACS Omega, 2025).

Target: S. aureus DNA gyrase (Staphylococcus aureus, UniProt P0A0K8+P20831)
Experiment: DNA gyrase supercoiling inhibition assay
Format: biochemical
Conditions: read-out: IC50(μM) (mean ± SEM) / S. aureusDNA gyrase supercoiling

| IC50 [µM] | Structure (SMILES) |
| --- | --- |
| 7.13 ± 0.28 | CCOC(=O)c1c(-n2cnnn2)sc2c1SC1N(c3ccccc3)C(=O)c3ccccc3N21 (centres unmarked) [compound 5, Ethyl 5-Oxo-6-phenyl-9-(1H-tetrazol-1-yl)-6,6a-dihydro-5H-thieno[2′,3′:4,5]thiazolo[3,2-a]quinazoline-8-carboxylate] |
| 11.7 ± 0.47 | CS(=O)(=O)N1SCC(=O)c2c1sc1c2SC2N(c3ccccc3)C(=O)c3ccccc3N12 (centres unmarked) [compound 4, 11-(methylsulfonyl)-6-phenyl-6,6a-dihydro-5H,9H-[1,2]thiazino[4″,3”:4′,5′]thieno[2′,3′:4,5]thiazolo[3,2-a]quinazoline-5,8(11H)-dione] |
